# Assay results taken from ChEMBL document CHEMBL1201862, “PubChem BioAssay data set” (2004).
# Activity calls are given as the source filed them.
# Tests used:
# [1] = biological target: T1, Probable nicotinate-nucleotide adenylyltransferase (Staphylococcus aureus (strain N315), UniProt P65502); assay type: functional, Staphylococcus aureus subsp. aureus N315; conditions: read-out: IC50_Mean;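 for IC50 Mean: confirmatory dose-response retesting of NadD inhibitor hits first found in an ultra-high-throughput screen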
# [2] = biological target: Induced myeloid leukemia cell differentiation protein Mcl-1 (Homo sapiens, UniProt Q07820); assay type: functional
# [3] = biological target: T1, Probable nicotinate-nucleotide adenylyltransferase; assay type: functional, Staphylococcus aureus subsp. aureus N315
# [4] = biological target: T2, Low molecular weight phosphotyrosine protein phosphatase (Homo sapiens, UniProt P24666); assay type: functional; conditions: read-out: IC50_Mean
# T2 sequence (P24666 whole entry): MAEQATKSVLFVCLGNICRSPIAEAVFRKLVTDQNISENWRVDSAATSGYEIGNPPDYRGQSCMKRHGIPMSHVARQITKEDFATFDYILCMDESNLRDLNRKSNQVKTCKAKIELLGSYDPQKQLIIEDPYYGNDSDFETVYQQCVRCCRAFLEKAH
# [5] = biological target: T2, Low molecular weight phosphotyrosine protein phosphatase; assay type: functional; conditions: read-out: IC50_Mean; remark: listed apart in the source
# [6] = biological target: T3, Replicative DNA helicase DnaB (Mycobacterium tuberculosis, UniProt P9WMR3); assay: DnaB intein splicing inhibitors, dose response, biochemical, cell-free fluorescence (AID 449749); assay type: functional
# T3 sequence (P9WMR3 whole entry): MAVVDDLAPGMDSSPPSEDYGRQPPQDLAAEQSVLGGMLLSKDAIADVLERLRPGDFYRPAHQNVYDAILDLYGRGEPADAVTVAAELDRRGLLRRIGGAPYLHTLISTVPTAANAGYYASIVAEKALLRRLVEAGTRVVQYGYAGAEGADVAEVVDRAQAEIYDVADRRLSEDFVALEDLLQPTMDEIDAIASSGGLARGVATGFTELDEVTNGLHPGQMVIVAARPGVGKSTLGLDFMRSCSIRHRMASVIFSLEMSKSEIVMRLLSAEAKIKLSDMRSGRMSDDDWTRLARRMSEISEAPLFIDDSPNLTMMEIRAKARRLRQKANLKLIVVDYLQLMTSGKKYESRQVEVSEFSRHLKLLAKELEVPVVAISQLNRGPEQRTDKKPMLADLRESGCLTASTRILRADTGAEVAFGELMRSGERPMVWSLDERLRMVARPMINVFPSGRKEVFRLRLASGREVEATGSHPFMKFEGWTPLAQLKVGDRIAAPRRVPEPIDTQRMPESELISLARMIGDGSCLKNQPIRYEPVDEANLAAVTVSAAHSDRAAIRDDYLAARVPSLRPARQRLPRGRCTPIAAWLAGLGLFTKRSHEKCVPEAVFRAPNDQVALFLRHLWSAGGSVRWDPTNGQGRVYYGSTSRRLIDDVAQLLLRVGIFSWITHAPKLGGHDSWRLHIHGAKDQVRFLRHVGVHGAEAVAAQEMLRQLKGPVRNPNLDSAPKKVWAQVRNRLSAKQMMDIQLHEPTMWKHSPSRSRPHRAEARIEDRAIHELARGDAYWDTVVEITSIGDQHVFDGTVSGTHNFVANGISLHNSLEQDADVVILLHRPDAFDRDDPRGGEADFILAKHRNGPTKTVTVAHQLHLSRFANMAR
# [7] = biological target: Hepatocyte nuclear factor 4-alpha (Homo sapiens, UniProt P41235); assay type: functional, cell-based;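 note: biochemical luminescence-based dose-response counterscreen measuring inhibition of HNF4 dimerization, run alongside a screen for blockers of ABHD5–perilipin-5 interaction; split luciferase complementation of HNF4 fusion proteins in cell lysate measuring dimerization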
# Genome polyprotein = Genome polyprotein (dengue virus type 2, UniProt P29990); assay: Dengue-2 NS5 methyltransferase inhibitors, primary screen, biochemical, confirmation dose response (AID 588689); assay type: functional
# Vero = Vero cell cytotoxicity, cytotoxicity control for flavivirus capping enzyme inhibitors (AID 588742); assay type: functional; conditions: Chlorocebus sabaeus
# [8] = control 3'UTR Renilla luciferase suppression, dose response, counter-screen for Shn3 inhibitor project, cell-based, Clone20-Shn3RL, cherry-picked (AID 624133); assay type: functional
# [9] = HepG2 cell cytotoxicity, dose response, cytotoxicity control for Shn3 inhibitor project, CellTiter-Glo, cherry-picked (AID 624134); assay type: functional, cell-based
# Protein RecA = biological target: T4, Protein RecA (Mycobacterium tuberculosis, UniProt P9WHJ3); assay: Fluorescence Cell-Free Homogeneous Dose Retest to Identify Inhibitors of RecA-Intein Splicing Activity. [Related pubchem assays (depositor defined):AID2097, AID2223, AID489010, AID492950]; assay type: functional
# T4 sequence (P9WHJ3 whole entry): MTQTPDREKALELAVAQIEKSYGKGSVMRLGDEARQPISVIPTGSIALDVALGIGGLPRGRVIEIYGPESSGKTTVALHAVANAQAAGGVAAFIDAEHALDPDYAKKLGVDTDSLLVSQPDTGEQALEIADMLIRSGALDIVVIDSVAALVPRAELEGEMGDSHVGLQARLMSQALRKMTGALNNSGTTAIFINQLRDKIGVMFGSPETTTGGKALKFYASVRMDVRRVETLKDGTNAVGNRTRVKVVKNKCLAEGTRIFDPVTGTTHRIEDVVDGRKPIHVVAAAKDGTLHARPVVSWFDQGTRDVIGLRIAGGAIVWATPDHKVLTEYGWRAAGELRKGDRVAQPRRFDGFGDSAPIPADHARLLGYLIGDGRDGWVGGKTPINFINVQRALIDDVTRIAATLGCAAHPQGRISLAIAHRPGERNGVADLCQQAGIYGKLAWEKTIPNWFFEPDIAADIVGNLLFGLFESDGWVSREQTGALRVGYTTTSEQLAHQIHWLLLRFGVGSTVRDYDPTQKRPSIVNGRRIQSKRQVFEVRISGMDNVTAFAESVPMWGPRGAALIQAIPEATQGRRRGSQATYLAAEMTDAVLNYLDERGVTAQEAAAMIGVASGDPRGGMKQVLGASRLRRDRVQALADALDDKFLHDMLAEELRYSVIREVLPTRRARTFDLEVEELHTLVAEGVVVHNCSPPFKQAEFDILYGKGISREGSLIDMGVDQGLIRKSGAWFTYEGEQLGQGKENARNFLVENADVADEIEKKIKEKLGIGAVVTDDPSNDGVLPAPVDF
# [10] = Shn3 3'UTR reporter inhibitors, dose response, cell-based, Clone20 osteoblasts, firefly luciferase, cherry-picked (AID 624132); assay type: functional;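 note: firefly luciferase luminescence from reporter carrying the Shn3 3'UTR in osteoblasts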
# Beta-lactamase [11] = biological target: Beta-lactamase (Salmonella choleraesuis (strain SC-B67), UniProt Q5J463)
# HEK293 [12] = assay: HEK cell cytotoxicity by LDH release, dose response, cytotoxicity control for IDE activator project, fluorescence, HEK cells (AID 588440); assay type: functional, cell-based; conditions: Homo sapiens;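 note: cytotoxicity by LDH release measuring loss of membrane integrity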
# Insulin-degrading enzyme [13] = biological target: T5, Insulin-degrading enzyme (Homo sapiens, UniProt P14735); assay: activators of recombinant IDE enzyme, dose response, counter-screen for IDE activator project, biochemical, fluorescence polarization (AID 588681)
# T5 sequence (P14735 whole entry): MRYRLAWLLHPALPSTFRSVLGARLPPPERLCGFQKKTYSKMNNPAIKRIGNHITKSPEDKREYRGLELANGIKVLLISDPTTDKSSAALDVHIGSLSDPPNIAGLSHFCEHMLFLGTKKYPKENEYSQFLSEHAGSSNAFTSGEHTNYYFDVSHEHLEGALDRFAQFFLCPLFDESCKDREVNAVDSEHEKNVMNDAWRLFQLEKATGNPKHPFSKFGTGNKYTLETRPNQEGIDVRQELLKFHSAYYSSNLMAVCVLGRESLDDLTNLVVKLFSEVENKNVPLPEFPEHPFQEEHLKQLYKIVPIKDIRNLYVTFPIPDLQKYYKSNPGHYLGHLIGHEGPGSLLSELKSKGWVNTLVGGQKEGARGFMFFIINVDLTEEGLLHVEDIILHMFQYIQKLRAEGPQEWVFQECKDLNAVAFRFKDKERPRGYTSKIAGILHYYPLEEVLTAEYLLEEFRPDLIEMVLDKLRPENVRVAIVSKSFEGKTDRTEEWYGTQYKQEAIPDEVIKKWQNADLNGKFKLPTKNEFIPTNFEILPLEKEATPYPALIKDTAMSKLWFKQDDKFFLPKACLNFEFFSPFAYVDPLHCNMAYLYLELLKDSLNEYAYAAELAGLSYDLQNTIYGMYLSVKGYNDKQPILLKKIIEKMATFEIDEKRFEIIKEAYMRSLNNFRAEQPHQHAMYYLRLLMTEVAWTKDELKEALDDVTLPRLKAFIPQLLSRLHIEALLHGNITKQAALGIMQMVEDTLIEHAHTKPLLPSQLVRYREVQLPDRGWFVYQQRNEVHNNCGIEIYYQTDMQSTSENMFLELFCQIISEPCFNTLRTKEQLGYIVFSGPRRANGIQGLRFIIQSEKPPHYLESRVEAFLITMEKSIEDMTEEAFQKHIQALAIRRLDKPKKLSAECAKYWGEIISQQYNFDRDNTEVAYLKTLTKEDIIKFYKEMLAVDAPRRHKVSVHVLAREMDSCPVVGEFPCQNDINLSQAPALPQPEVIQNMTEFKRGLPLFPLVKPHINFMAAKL
# Beta-lactamase [14] = biological target: Beta-lactamase (Pseudomonas aeruginosa, UniProt Q79MP6);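 note: biochemical dose-response test of metallo-beta-lactamase enzyme inhibition, read out by epi-absorbance; purified recombinant IMP-1 metallo-beta-lactamase with nitrocefin as substrate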
# HEK293 [15] = assay: optical interference in Abeta FP readout, dose response, artefact control for IDE activator project, biochemical, fluorescence polarization (AID 588442); assay type: functional, cell-based; conditions: Homo sapiens
# Insulin-degrading enzyme [16] = biological target: T5, Insulin-degrading enzyme; assay: activators of endogenous IDE in HEK cells, dose response, cell-based, fluorescence polarization (AID 588439); assay type: functional
# Steroidogenic factor 1 = Steroidogenic factor 1 (Homo sapiens, UniProt Q13285); assay: Counterscreen for inverse agonists of the liver receptor homolog-1 (LRH-1; NR5A2): Luminescence-based cell-based high throughput dose response assay to identify inverse agonists of the Steroidogenic Factor 1 Nuclear Receptor (SF1; NR5A1).; assay type: functional
# [17] = StAR promoter reporter inhibition counter-screen, dose response, counter-screen for LRH-1 inverse agonist project, cell-based, luminescence, luciferase reporter (AID 651969); assay type: functional
# [18] = biological target: Nuclear receptor subfamily 5 group A member 2 (Homo sapiens, UniProt O00482); assay type: functional, cell-based;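 note: HEK293T cells transfected with LRH-1 and a StAR promoter luciferase reporter; potency for inhibitors that lower LRH-1 driven reporter light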
# [19] = biological target: Long-chain-fatty-acid--AMP ligase FadD28 (Mycobacterium tuberculosis, UniProt P9WQ59); assay: Fluorescence polarization aasay to screen for inhibitors that compete for the binding of FadD28 to a bisubstrate Measured in Biochemical System Using Plate Reader - 2147-01_Inhibitor_Dose_CherryPick_Activity.; assay type: functional, Mycobacterium tuberculosis H37Rv
# Cytochrome P450 3A4 = Cytochrome P450 3A4 (Homo sapiens, UniProt P08684);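 note: CYP3A4 tested as one member of a cytochrome P450 panel screen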
# [20] = biological target: T6, Polyadenylate-binding protein 1 (Homo sapiens, UniProt P11940); assay: PABP1 MLLE–PAM2 interaction inhibitors, dose response, miRNA deadenylation inhibitor project, biochemical, fluorescence polarization, Cy5-PAM2 peptide, secondary (AID 602260); assay type: functional; conditions: read-out: IC50_Mean
# [21] = biological target: T7, Sentrin-specific protease 1 (Homo sapiens, UniProt Q9P0U3); assay: Dose response confirmation of small molecule inhibitors of the catalytic domain of the SUMO protease, SENP1 in a FRET assay.; assay type: functional; conditions: read-out: IC50_Mean
# [22] = biological target: T7, Sentrin-specific protease 1; assay: potency of human SENP1 inhibitors, dose response, biochemical, kinetic FRET (AID 651697); assay type: functional; conditions: read-out: IC50_Mean
# [23] = biological target: T6, Polyadenylate-binding protein 1; assay: PABP1 MLLE–PAM2 binding inhibitor potency, dose response, biochemical, fluorescence polarization, FITC-PAM2 peptide (AID 602259); assay type: functional; conditions: read-out: IC50_Mean
# T6 sequence (P11940 whole entry, the tested form may be a part): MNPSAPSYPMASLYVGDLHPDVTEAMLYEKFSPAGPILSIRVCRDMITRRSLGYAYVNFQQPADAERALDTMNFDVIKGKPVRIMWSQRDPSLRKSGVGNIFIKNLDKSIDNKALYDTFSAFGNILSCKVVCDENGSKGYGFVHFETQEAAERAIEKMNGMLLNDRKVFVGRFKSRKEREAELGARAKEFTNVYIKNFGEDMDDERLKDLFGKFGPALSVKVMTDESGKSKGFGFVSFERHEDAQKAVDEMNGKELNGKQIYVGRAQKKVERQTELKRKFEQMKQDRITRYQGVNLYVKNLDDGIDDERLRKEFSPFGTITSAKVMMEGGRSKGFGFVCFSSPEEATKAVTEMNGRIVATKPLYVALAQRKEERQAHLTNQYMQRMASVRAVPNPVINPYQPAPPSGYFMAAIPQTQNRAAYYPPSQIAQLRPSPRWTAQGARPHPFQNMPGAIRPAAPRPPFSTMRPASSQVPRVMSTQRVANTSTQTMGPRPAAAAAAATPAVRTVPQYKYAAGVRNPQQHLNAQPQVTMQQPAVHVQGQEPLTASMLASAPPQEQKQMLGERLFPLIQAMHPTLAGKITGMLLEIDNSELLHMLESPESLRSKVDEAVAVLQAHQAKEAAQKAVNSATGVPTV
# Sequence of Genome polyprotein (P29990 2492-3391 limits assumed): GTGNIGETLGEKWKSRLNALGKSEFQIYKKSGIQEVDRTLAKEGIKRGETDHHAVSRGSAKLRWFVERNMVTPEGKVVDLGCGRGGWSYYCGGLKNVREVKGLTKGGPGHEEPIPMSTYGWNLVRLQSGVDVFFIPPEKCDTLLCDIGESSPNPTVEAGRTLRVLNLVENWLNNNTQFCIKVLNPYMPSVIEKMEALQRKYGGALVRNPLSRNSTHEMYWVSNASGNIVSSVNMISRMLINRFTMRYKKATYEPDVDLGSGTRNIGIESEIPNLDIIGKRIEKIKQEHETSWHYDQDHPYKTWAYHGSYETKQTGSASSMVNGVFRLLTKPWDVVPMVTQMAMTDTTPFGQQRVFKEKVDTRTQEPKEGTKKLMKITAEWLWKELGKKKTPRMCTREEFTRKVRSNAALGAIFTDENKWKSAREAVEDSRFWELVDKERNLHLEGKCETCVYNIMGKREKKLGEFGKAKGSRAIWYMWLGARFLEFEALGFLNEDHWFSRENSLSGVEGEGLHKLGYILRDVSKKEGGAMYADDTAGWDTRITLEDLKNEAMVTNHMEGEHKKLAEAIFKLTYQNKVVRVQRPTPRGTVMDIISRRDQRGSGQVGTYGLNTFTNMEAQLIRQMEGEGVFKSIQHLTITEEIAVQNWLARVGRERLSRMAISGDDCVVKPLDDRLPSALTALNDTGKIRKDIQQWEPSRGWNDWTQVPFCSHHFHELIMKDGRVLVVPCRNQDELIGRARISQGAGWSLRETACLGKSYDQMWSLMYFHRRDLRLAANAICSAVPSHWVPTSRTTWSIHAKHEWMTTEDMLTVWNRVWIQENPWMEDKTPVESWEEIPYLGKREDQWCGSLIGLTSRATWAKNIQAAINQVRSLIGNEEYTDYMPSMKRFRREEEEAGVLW
# T7 sequence (Q9P0U3 whole entry, the tested form may be a part): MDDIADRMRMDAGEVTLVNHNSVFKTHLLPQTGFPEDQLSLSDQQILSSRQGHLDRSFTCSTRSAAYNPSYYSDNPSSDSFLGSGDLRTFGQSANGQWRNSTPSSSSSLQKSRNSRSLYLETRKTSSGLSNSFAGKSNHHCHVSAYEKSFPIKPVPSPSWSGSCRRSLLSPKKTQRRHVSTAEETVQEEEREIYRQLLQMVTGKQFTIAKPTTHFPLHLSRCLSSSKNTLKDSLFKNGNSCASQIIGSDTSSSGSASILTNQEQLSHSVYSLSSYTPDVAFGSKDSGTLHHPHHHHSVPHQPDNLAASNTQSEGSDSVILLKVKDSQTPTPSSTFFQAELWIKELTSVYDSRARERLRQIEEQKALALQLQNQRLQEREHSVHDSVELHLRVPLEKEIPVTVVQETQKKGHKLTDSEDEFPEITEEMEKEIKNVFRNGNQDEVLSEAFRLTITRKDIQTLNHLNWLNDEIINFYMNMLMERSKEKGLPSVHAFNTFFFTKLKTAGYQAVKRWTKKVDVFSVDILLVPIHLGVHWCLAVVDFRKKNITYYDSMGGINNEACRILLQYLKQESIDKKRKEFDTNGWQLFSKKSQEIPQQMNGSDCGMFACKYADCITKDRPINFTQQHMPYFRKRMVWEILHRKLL
# T1 sequence (P65502 whole entry): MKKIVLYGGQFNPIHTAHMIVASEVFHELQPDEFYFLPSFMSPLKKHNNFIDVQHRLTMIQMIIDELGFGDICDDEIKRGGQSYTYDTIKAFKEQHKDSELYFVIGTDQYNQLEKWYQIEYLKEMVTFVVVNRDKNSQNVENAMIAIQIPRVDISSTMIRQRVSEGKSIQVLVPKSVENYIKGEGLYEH
# Sequence of Beta-lactamase (Pseudomonas aeruginosa, UniProt Q79MP6) (Q79MP6 whole entry): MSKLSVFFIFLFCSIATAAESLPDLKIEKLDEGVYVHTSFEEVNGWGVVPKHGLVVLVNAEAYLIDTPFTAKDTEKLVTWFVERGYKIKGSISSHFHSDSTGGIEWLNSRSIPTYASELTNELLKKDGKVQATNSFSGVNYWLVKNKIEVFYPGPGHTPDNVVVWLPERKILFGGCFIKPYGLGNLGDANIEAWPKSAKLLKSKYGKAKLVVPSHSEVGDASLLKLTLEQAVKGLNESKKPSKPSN
# Sequence of Steroidogenic factor 1 (Q13285 whole entry): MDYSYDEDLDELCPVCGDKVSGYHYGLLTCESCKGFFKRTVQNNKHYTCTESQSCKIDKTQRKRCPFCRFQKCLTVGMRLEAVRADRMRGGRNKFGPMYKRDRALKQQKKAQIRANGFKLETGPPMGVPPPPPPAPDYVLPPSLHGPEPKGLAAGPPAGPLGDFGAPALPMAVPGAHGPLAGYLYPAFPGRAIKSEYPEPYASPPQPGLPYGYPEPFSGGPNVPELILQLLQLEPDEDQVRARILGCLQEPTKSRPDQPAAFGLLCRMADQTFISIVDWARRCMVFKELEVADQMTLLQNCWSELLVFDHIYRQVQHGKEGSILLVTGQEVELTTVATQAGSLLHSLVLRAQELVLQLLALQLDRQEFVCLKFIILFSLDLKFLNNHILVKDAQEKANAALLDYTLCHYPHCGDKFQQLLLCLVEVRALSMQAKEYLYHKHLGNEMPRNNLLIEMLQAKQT
# Sequence of Nuclear receptor subfamily 5 group A member 2 (O00482 whole entry): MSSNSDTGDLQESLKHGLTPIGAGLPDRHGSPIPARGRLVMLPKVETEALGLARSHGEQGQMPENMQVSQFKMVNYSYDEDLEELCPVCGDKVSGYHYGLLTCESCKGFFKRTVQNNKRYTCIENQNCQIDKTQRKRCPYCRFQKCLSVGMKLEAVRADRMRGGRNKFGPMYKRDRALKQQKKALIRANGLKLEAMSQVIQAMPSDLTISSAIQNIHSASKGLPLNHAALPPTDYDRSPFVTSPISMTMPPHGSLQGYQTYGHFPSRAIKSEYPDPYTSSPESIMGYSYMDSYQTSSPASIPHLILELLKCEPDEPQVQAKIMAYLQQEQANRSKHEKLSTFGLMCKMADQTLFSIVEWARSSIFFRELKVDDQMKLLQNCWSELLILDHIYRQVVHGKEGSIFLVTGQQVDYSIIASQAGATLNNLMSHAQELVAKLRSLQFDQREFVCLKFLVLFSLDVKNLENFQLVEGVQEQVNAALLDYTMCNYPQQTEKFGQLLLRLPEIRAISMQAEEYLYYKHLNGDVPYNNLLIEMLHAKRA
# Sequence of Induced myeloid leukemia cell differentiation protein Mcl-1 (Q07820 whole entry): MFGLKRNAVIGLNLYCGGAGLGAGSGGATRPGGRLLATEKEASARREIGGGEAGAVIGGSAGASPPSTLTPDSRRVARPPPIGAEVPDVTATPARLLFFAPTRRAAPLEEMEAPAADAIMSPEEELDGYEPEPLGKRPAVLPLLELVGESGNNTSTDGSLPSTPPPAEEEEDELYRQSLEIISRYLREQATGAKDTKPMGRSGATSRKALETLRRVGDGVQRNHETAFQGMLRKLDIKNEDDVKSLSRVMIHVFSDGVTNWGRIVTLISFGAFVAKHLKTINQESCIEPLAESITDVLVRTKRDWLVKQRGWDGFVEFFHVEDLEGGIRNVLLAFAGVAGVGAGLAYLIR
# Sequence of Cytochrome P450 3A4 (P08684 whole entry): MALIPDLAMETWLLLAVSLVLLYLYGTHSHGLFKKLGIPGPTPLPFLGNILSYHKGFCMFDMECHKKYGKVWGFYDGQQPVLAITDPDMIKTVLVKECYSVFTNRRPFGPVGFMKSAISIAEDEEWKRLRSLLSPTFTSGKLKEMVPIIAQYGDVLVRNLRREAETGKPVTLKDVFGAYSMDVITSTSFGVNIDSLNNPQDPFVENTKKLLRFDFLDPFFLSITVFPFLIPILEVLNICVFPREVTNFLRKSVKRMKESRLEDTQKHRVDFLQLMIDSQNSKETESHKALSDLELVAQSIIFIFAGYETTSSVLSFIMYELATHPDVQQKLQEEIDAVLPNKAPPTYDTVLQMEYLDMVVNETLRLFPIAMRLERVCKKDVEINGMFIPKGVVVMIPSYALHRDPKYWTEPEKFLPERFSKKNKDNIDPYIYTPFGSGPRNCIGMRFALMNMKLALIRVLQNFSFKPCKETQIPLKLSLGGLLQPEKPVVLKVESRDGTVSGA
# Sequence of Beta-lactamase (Salmonella choleraesuis (strain SC-B67), UniProt Q5J463) (Q5J463 whole entry): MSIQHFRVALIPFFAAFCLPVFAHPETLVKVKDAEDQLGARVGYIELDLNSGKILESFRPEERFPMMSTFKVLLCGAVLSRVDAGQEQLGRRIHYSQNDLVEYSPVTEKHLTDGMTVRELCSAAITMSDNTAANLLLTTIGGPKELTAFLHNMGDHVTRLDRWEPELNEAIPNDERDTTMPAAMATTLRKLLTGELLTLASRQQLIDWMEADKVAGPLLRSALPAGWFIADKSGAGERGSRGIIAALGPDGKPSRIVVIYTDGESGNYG
compound,measurement,setting,value
O=C(Nc1ccc(S(=O)(=O)Nc2nccs2)cc1)/C(=C/c1ccccc1Cl)NC(=O)c1ccccc1,IC50,[1],22.8 µM (active)
same,IC50,[2],2.73 µM (active)
same,IC50,[3],6.5 µM (active)
Nc1ncc2c(n1)CC(c1ccco1)CC2=O (centres undefined),IC50,[4],40.5 µM (inactive)
same,IC50,[5],56.8 µM (inactive)
CSc1nnc(NC(=O)c2nc(S(=O)(=O)Cc3ccccc3)ncc2Cl)s1,AC50,[6],5.23 µM (active)
same,IC50,[7],5.52 µM (active)
same,IC50,Genome polyprotein,50.6 µM (active)
same,CC50,Vero,31.1 µM (active)
same,AC50,[8],14.5 µM (active)
same,AC50,[9],67.4 µM (active)
same,EC50,Protein RecA,4.73 µM (active)
same,AC50,[10],1.35 µM (active)
N#CC(C#N)=C1C=C2C=C(N3CCOCC3)CCC2CC1 (centres undefined),IC50,Beta-lactamase [11],1.49 µM (active)
same,IC50,HEK293 [12],> 89.1 µM (inactive)
same,EC50,Insulin-degrading enzyme [13],> 54.7 µM (inactive)
same,IC50,Beta-lactamase [14],6.86 µM (active)
same,EC50,HEK293 [15],> 54.7 µM (inactive)
same,EC50,Insulin-degrading enzyme [16],> 54.7 µM (inactive)
NC(=O)C1CCN(C(=O)COc2ccc3c4c(c(=O)oc3c2)CCC4)CC1,IC50,Steroidogenic factor 1,35.9 µM (inactive)
same,IC50,[17],35.9 µM (inactive)
same,IC50,[18],35.9 µM (inactive)
Cc1cccc(NC(=O)Cn2c(=O)oc3ccccc32)c1,AC50,[19],5.47 µM (active)
same,AC50,Cytochrome P450 3A4,25.1 µM (inconclusive)
Nc1nc(O)cc(N=Nc2ccc(O)cc2)n1,IC50,Genome polyprotein,26.7 µM (active)
same,IC50,[20],> 66 µM (inactive)
same,IC50,[21],15.4 µM (active)
same,IC50,[22],11.6 µM (active)
same,IC50,[23],43.8 µM (inactive)
